US20190231751A1, “TREATMENT OF FIBROTIC DISORDERS WITH JUN N-TERMINAL KINASE INHIBITORS” (Imago Pharmaceuticals, Inc., priority 2016, published 2019)

Columns and labels:
[1] = test system: myocardial ischemia-reperfusion; assay: Rat model of cardiac ischemia and remodeling; assay type: in vivo
Procedure: To study the effects of JNK inhibitors on prevention and/or progression of cardiac infarct size following myocardial infarction, a rat model of cardiac ischemia and remodeling was used. Briefly, adult male Sprague-Dawley rats (Charles River labs) are subjected to 45 minutes normothermic ischemia (left coronary artery occlusion) followed by 48 hours reperfusion. In rodents, myocardial infarct size stabilizes by 48 hour post-ischemia following which events relating to left ventricular (LV) dilatation and remodeling begin. At the onset of reperfusion, animals receive vehicle, IGP001 or IGP002 (10 mg/kg/day) p.o. Infarct size as a percentage of region-at-risk (RAR) is determined using standard Evans Blue and tetrazolium chloride staining of the hearts. Rats are next tested for ischemic ventricular remodeling and cardiac function following treatment with IGP001 and IGP002. Rats subjected to 45 minutes normothermic myocardial ischemia receive vehicle, IGP001 or IGP002 p.o. (10 mg/kg/day, p.o.; twice/day for remainder of study) at onset of reperfusion. Following a 48 hour treatment period, animals are subjected to echocardiography (Philips Envisor C Ultrasound) at week 1 reperfusion and sacrificed at week 8 reperfusion. Myocardial ischemia-reperfusion is associated with the hall mark indices of LV remodeling: increased end-diastolic volume or LV dilatation; increased end-systolic volume (i.e. reduced cardiac output); reduced fractional shortening and ejection fraction. […] To better mimic the clinical scenario of delayed start of treatment, rats are administered with vehicle, IGP001 or IGP002 (10 mg/kg/day) p.o. 3 hours after the onset of reperfusion following a 45 minute myocardial ischemia. Animals are sacrificed at 48 hours reperfusion.

[2] = test system: bleomycin-induced lung fibrosis; assay: Mouse bleomycin-induced lung fibrosis model, preventative study; assay type: in vivo; conditions: 10 mg/kg and 30 mg/kg b.i.d. oral gavage starting prior to bleomycin; 14 days
Procedure: Age and gender-matched wild type mice on the C57BL/6 background were utilized for this study, which is outlined in Table 1: Mice are housed in a sterile barrier facility at the Yale University School of Medicine and all proposed procedures are approved on existing mouse protocols. Mice were given a single inhaled dose of 1.25 Units/kg pharmacologic grade bleomycin (Teva Pharmaceuticals, Israel) in a volume of 50 μl. Mice received twice daily administered IGP001, via oral gavage, on a b.i.d. schedule starting prior to bleomycin treatment in this preventative study. Mice were sacrificed at 14 days following the administration of bleomycin and assessed as appropriate for the outcomes shown in Table 2: Briefly, lung inflammation was assessed by Bronchoalveolar lavage cell counts. Total soluble lung collagen will be quantified using Sircol Assay (Biocolour, Ireland). Formalin fixed, paraffin embedded mouse lung sections were stained with hematoxylin and eosin to assess gross morphology, morphometry, and Ashcroft scores and with Masson's trichrome stains to visualize collagen deposition.

[3] = Rat PK/PD study: plasma compound levels by LC/MS; assay type: in vivo; conditions: female Wistar rats; kainic acid 60 minutes after compound; blood 4 hours post kainic acid
Procedure: Plasma compound levels for two of the JNK inhibitors, IGP001 (Formula (XXI)) and IGP002 (Formula (XXII)), were obtained using a rat model for pharmaceutical administration of the compounds. Female Wistar rats, 7-9 weeks old, were obtained (SLAC Laboratory Animal Co. Ltd., Shanghai, China), and three groups of animals (n=3 each) received 1) kainic acid and 2) either IGP001 in vehicle, IGP002 in vehicle, or vehicle alone. The animals received the kainic acid 60 minutes after they received the IGP001 in vehicle, IGP002 in vehicle, and or vehicle alone.
For administration, the kainic acid was dissolved in saline, and introduced to the rats using the protocol as generally disclosed in Tse K, Puttachary S, Beamer E, Sills G J, Thippeswamy T (2014) PLoS One 9:e96622. Animals in each group were surgically implanted with catheters in carotid artery using polyurethane tubing and heparin (50 IU/mL)/glucose (50%) solutions as the lumen lock solution. Anaesthetic barbital was used during the surgery. The animals were allowed to recover seven days after surgery.
The animals were euthanized 4 hours post kainic acid administration using CO2 inhalation and blood was collected via cardiac puncture. 5 mL blood was transferred into pre-labled plastic microcentrifuge tubes containing K2-EDTA (0.5M) as anti-coagulant. Plasma levels were determined by a validated LC/MS analysis.

[4] = test system: CTGF mRNA; assay: TGF-β1-induced CTGF mRNA expression in HFL-1 cells; assay type: cell-based, human; conditions: compound 30 min before TGF-β1 1 ng/ml for 4 hours
Procedure: HFL-1 cells are created as described above in Example 3. HFL-1 cells are cultured with 0.1% DMSO (control vehicle), IGP001 or IGP002 for 30 min before stimulation with TGF-β1 (1 ng/ml) for 4 hours. Total RNA is extracted and hybridized with human CTGF probes, and messenger RNA levels are quantified by densitometry and optical density of CTGF mRNA band was corrected for G3PDH, and results are expressed as ratio (%) of control value (TGF-β1-stimulated HFL-1 cells).

[5] = test system: c-Jun phosphorylation at serine 63; assay: ELISA of c-Jun phosphorylation in PBMC of treated rats; assay type: in vivo, rat; conditions: 10 and 30 mg/kg; kainic acid treated rats
Procedure: Blood from the animals treated with kainic acid as per Example 1 above was processed for the characterization of peripheral blood mononuclear cells (PBMC) from the treated animals. Briefly, the final blood samples from the exsanguinated rats were immediately centrifuged at 3,000 g for 10 minutes at 4° C. The plasma in upper layer was removed, and the remaining portion used for the isolation of the PBMC.
The buffy coat of PBMCs at the erythrocyte-plasma interface and the top red cell layer were collected into a 15 mL falcon tube containing 3 ml chilled PBS. The sample was resuspended and transferred to other 15 mL falcon tubes containing 6 ml Ficoll-Paque plus density gradient, and centrifuged at 18° C. for 10 minutes at 800 g. […] The middle ‘cloudy’ interface layer between plasma and Ficoll containing the PBMCs was transferred to a 15 mL tube, washed with 10 mL of cold PBS (4° C., 1×PBS), and centrifuged for 5 min at 4° C. at 1000 g. The supernatant was discarded.
The isolated PBMC were subjected to an ELISA assay using a kit for the detection of c-Jun phosphorylation at serine 63. Detection of phospho-Jun was carried out for the PMBCs of each kainic acid administered rat group: those receiving IGP001 in vehicle, those receiving IGP002 in vehicle, or those receiving vehicle alone.

[6] = 10 mg/kg/day p.o. for 48 hours following myocardial ischemia, week 1

Compound: O=C(Cn1c(=O)ccc2cc(C(F)(F)F)ccc21)Nc1scc(Br)c1-c1nnc[nH]1 [IGP001, N-(4-bromo-3-(1H-1,2,4-triazol-5-yl)thiophen-2-yl)-2-(2-oxo-6-(trifluoromethyl)quinolin-1(2H)-yl)acetamide]
- size of infarction, delayed start of treatment ([1]; 10 mg/kg/day p.o. 3 hours after the onset of reperfusion, 48 hours reperfusion): statistically significant decrease in the size of infarction
- postischemic myocardial infarct size ([1]; 10 mg/kg/day p.o. at the onset of reperfusion, 48 hours reperfusion): significant reduction in postischemic myocardial infarct size
- LV remodeling (echocardiography) [1, 6]: reduces adverse LV remodeling
- cardiac function (echocardiography) [1, 6]: improved cardiac function
- deposited collagen (Masson's trichrome stain) [2]: reduced deposited collagen
- plasma compound levels versus cellular EC50 [3]: sufficient compound in the plasma of treated animals to exceed cellular EC50 in the periphery
- CTGF mRNA expression [4]: suppressed CTGF mRNA expression by HFL-1 cells stimulated with TGF-β1 in a dose-dependent fashion
- c-Jun phosphorylation in PBMC [5]: decrease in c-Jun phosphorylation
